Assay results taken from patent publication US20240424115A1, “LONG-ACTING INTERLEUKIN-15 RECEPTOR AGONISTS AND RELATED IMMUNOTHERAPEUTIC COMPOSITIONS AND METHODS” (Nektar Therapeutics, priority 2017, published 2024).
“And” between values parts separate entries of the source, which are not always exact repeats. Equal entries are not always repeated. Where two headings read alike, the source gives them in different places.

Tests used:
IL-15Rα = IL-15Rα (Homo sapiens, UniProt Q13261); test: Receptor affinity for IL-15Rα by surface plasmon resonance (BIAcore); format: binding; settings: for ka: IL-15Rα:Fc captured by anti-Fc
IL-15Rα, sequence (Q13261 31-205 limits assumed): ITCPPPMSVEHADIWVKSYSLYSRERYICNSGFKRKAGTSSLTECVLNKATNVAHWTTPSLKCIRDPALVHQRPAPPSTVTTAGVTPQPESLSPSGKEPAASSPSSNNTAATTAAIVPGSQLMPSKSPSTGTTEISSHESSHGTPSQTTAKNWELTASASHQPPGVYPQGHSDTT
Procedure: The affinities of IL-15 and exemplary long acting rIL-15 receptor agonists were measured using Surface Plasmon Resonance (“SPR”) using a BIAcore™ SPR system. Briefly, the surface of a Biacore CM5 sensor chip was activated using a 1:1 mixture of NHS: EDC to generate active NHS esters. Goat anti-human Fc antibody was covalently attached to the surface by injecting it for five minutes in 10 mM sodium acetate (pH 4). There were approximately 8000 RU of antibodies bound to the surface. Any remaining NHS ester was then quenched with ethanolamine.
At the initiation of each injection cycle, IL-15-Rα-Fc was captured on a sensor chip channel by a five-minute injection step in PBSP. Typically, 150-200 RU of receptors were bound on the surface.
(§1) Long acting rIL-15 receptor agonist test articles were diluted to 10 µM in PBS (containing 0.05% Tween 20 and 0.1 mg/ml BSA). A series of 3-fold dilutions were made and injected onto a sensor chip which was coated with IL-15Rα. The affinities were measured by determining the ka and kd rates separately, and the ratio between kd and ka was used to calculate the Kd values.
The affinities of exemplary long-acting IL-15 receptor agonists (test articles) for the IL-15 α receptor were measured and compared to IL-15. Affinity was measured by BIAcore using IL-15Rα:Fc captured by immobilized anti-Fc.
as §1, with “The” for “Long acting rIL-15 receptor agonist”, “μM” for “µM”, “between ka and” for “between”, “kd” for “kd and ka”, “[…]” for “Kd”

[1] = Single dose PK study in non-human primates (plasma concentration); format: in vivo; settings: cynomolgus monkeys
Procedure: Cynomolgus monkeys (n=2, 1 male and 1 female), were administered a single intravenous dose of Conjugate 1 at 10, 50 and 100 μg/kg. IL-15 was administered as a single intravenous dose at 50 μg/kg as a control. Plasma concentration of drug was determined at the indicated time points post injection (0.03, 0.25, 1, 4, 12, 24, 48, 72, 96, 120, 144, 168 hours).

[2] = test system: NK cells, CD8 T cells, CD4 T cells; test: In vivo PD study in mice: lymphocyte cell numbers, proliferation and activation; set-up: species or system Balb/c mice
Excerpt: NK cells and their proliferation were defined using CD45+CD3-CD49b+ and CD45+CD3-CD49b+Ki67+ marker combinations. Following dosing, blood samples were acquired on the Fortessa flow cytometer running FACS DIVA software. Flowjo software was used for analysis and NK cell absolute values and Ki67% positivity within NK cells were plotted using Prism.
In mouse, four different maturation states of NK cells are defined by CD27 and CD11b expression. Once NK marker (CD49b+), natural activating NK receptor (NKp46+) and IL-15/IL-2RB (CD122+) triple positive cells were identified, immature (CD11b−CD27−), early (CD11b−CD27+), high effector (CD11b+CD27+) and terminal effector (CD11b+CD27−) NK cells were quantified by flow cytometry.
NK cells in various maturation states were quantified in mice receiving a single dose, or after the third dose of a q7dx3 schedule, of Conjugate 1 at 0.01, 0.03, 0.1, 0.3, 1.0, and 1.5 mg/kg as described above. Using flow cytometry, the NK population of interest was identified by CD49b, NKp46 and CD122 positivity. CD11b and CD27 were then used to further differentiate the NK population in immature (CD11b-CD27−), early NK (CD11b−CD27+), high effector (CD11b+CD27+) and terminal effector (CD11b+CD27−) subpopulations. Peripheral blood was run on the Fortessa flow cytometer and absolute values for each population were determined using counting beads during sample acquisition using BD FACS DIVA software. Flow cytometric analysis was conducted using Flowjo software and data plotted in Prism.
The surface expression of NKG2D was conducted using flow cytometric analysis of anti-NKG2D signal, expressed as mean fluorescence intensity (MFI) in NK cells. Similarly, the level of intracellular granzyme B was conducted using flow cytometry-based detection of anti-Granzyme B signal, also expressed as MFI in NK cells. Following detection of NKG2D and granzyme B signal using the Fortessa flow cytometer and FACS Diva software, analysis was conducted using Flowjo software. MFI values were plotted using Prism. […] Dose-dependent increases in both NK activation markers was observed following a single dose of Conjugate 1.
In mouse, CD8 T cells were defined as CD45+CD3+CD4−CD8+. Blood and spleen from mice were subject to immunophenotyping using the Fortessa flow cytometer and with analysis using Flowjo software. Absolute CD8 cell counts were plotted in Prism as shown in FIG. 14 (blood) and FIG. 24 (spleen). FIG. 14 and FIG. 24 illustrate the ability of Conjugate 1 to induce proliferation and a sustained increase in numbers of CD8 T-cells following a single i.v. administration in mice at each of the dosage amounts described above. The impact is most notable for the medium (0.1mg/kg, 0.3 mg/kg) and high (1.0 mg/kg, 1.5 mg/kg) dosage amounts.
In mouse, CD8 effector memory (Tem) and CD8 central memory (TCM) T cells were identified as CD45+CD3+CD4−CD8+CD44+CD62− and CD45+CD3+CD4−CD8+CD44+CD62L+. Proliferation of these memory populations was conducted using Ki-67 positivity. Following a single dose of Conjugate 1 or IL-15, blood and spleen were subject to immunophenotyping using the Fortessa flow cytometer, DIVA acquisition software and Flowjo analysis software. Graphs were plotted in Prism. […] Both effector and central memory populations proliferate in response to administration of Conjugate 1, an exemplary long acting IL-15 agonist.
NK-cell Granzyme B expression as a function of time was measured following treatment with Conjugate 1 at doses of 0.01 mg/kg, 0.03 mg/kg, 0.1 mg/kg, 0.3 mg/kg, 1 mg/kg, and 1.5 mg/kg. Whole blood was collected from 24 to 240 hours post-dose for immunophenotyping. Once red blood cells were lysed, white blood cells were labeled with viability dye and markers specific for CD45, CD3 and CD49b to identify live NK cells. Cells were then simultaneously fixed and permeabilized for intracellular Granzyme B staining. Stained blood was run on a Fortessa flow cytometer, acquired by DIVA software and analyzed using Flowjo software. […]

[3] = mice, blood, single dose 0.3 mg/kg

For “IL-15: recombinant human IL-15 from E. coli, SEQ ID NO: 1, non-glycosylated, 12.9 kDa; unconjugated comparator”, the ka (IL-15Rα; Table 2A) was 578000 M⁻¹ s⁻¹, the “dissociation rate constant (kd)” value (IL-15Rα; Table 2A) was 0.000149 s⁻¹ and the Kd (IL-15Rα; Table 2A, read-out: KD) was 0.258 nM. The Kd (IL-15Rα; Table 2B, read-out: IL-15Rα KD) was 0.258 nM, the “plasma levels following administration” value ([1]; single i.v. 50 μg/kg) was “rapidly cleared from the plasma” and the “Ki67 and Granzyme B in CD49b cells, spleen” value ([2]; mice, single dose) was “does not”.
With mono-mPEG-SBA40K-IL-15 [Conjugate 1] the ka (IL-15Rα; Table 2A) was 492000 M⁻¹ s⁻¹, the “dissociation rate constant (kd)” value (IL-15Rα; Table 2A) was 0.000103 s⁻¹ and the Kd (IL-15Rα; Table 2A, read-out: KD) was 0.209 nM. The Kd (IL-15Rα; Table 2B, read-out: IL-15Rα KD) was 0.201 nM and 0.209 nM, the “alpha receptor affinity of IL-15 retained” value (IL-15Rα; compared to IL-15) was “about 80%” and the half-life ([1]; single i.v. 100 μg/kg) was “approximately 30 hours”. For the same substance, the “Granzyme B percent positivity in blood NK cells” value ([2]; Balb/c mice, 0.03 and 0.3 mg/kg (Example 18)) was “induced significant increases in NK Granzyme B expression”, the “CD4 T cell numbers and % Ki-67” value ([2]; Balb/c mice, single i.v. 0.03 or 0.3 mg/kg, compared to CD8 and NK cells) was “relatively small increase in numbers and % Ki-67 expression” and the “percent of NK cells positive for Granzyme B expression” value ([2]; mice, 0.01-1.5 mg/kg, 24 to 240 hours (Example 15)) was “increases NK-cell Granzyme B expression”. The “duration of increase in NK cell number” value ([2]; mice, all dose levels) was “at least 96 hours”, the “duration of increase in % Ki67” value ([2]; mice, all dose levels, compared to vehicle) was “at least 120 hours” and the “increase in CD8 Tcm cell numbers” value [2, 3] was 37.9 X. For the same substance, the “increase in CD8 Tem cell numbers” value [2, 3] was 14.5 X, the “increase in CD8 cell numbers” value [2, 3] was 6.4 X and the “duration of increase of NK cells in all maturation sub-populations” value ([2]; mice, i.v., Example 11) was “at least 120 hours”. For the same substance, the “duration of increase in NK cell number” value ([2]; mice, medium and high dose levels) was “at least 144 hours”, the “duration of increase in % Ki67” value ([2]; mice, medium dose ranges (0.1 mg/kg and 0.3 mg/kg)) was “at least 144 hours” and the “increase in CD8 Tcm cell numbers” value ([2]; mice, repeated dosing Q7dx3) was 183 X. For the same substance, the “increase in CD8 Tem cell numbers” value ([2]; mice, repeated dosing Q7dx3) was 73.8 X, the “increase in CD8 cell numbers” value ([2]; mice, repeated dosing Q7dx3) was 35.3 X and the “Ki67 and Granzyme B in CD49b cells, spleen” value ([2]; mice, single dose) was “dose-dependent increase in both Ki67 and Granzyme B”. The “Ki-67 in effector and central memory CD8 T cells, blood” value ([2]; mice, single dose) was “dose-dependent increase in both effector and central memory CD8 T cells”, the “dose levels inducing a significant increase in total CD8 T cells in the blood” value ([2]; mice, single dose) was no less than 0.03 mg/kg and the NK cell numbers ([2]; mice, single dose 0.01 to 1.5 mg/kg) was “increase significantly above vehicle control at all dose levels”. The “CD8 and CD8 memory T cell numbers at end of time course” value ([2]; mice, single dose 0.3-1.5 mg/kg) was “did not return to baseline at 240 hours post injection”, the “NKG2D and Granzyme B expression (MFI) by NK cells” value ([2]; mice, single i.v. 0.03, 0.3, 1 mg/kg vs vehicle) was “sustained increase in both NKG2D and Granzyme B” and the “time increased CD8 cell numbers were maintained compared to vehicle” value ([2]; mice, single iv injection) was “at least 240 hours”.
